This note sets out measurements from patent US7960415B2, “Caspase inhibitors and uses thereof” (Vertex Pharmaceutical Incoporated, priority 2003, dated 2011).

One assay concerns Jurkat E6.1 cells. Kind of assay: Anti-Fas induced apoptosis assay. It is filed as cell-based. Conditions: Homo sapiens, anti-Fas antibody CH-11 10 ng/ml, 16-18 hrs, DNA fragmentation. The text has this:
Cellular apoptosis may be induced by the binding of Fas ligand (FasL) to its receptor, CD95 (Fas). CD95 is one of a family of related receptors, known as death receptors, which can trigger apoptosis in cells via activation of the caspase enzyme cascade. The process is initiated by the binding of the adapter molecule FADD/MORT-1 to the cytoplasmic domain of the CD-95 receptor-ligand complex. Caspase-8 then binds FADD and becomes activated, initiating a cascade of events that involve the activation of downstream caspases and subsequent cellular apoptosis. Apoptosis can also be induced in cells expressing CD95 e.g., the Jurkat E6.1 T cell lymphoma cell line, using an antibody, rather than FasL, to crosslink the cell surface CD95. Anti-Fas-induced apoptosis is also triggered via the activation of caspase-8. This provides the basis of a cell based assay to screen compounds for inhibition of the caspase-8-mediated apoptotic pathway.
Jurkat E6.1 cells are cultured in complete medium consisting of RPMI-1640 (Sigma No)+10% foetal calf serum (Gibco BRL No. 10099-141)+2 mM L-glutamine (Sigma No. G-7513). The cells are harvested in log phase of growth. 100 ml of cells at 5-8×10^5 cells/ml are transferred to sterile 50 ml Falcon centrifuge tubes and centrifuged for 5 minutes at 100×g at room temperature. The supernatant is removed and the combined cell pellets resuspended in 25 ml of complete medium. The cells are counted and the density adjusted to 2×10^6 cells/ml with complete medium.
The test compound is dissolved in dimethyl sulfoxide (DMSO)(Sigma No. D-2650) to give a 100 mM stock solution. This is diluted to 400 μM in complete medium, then serially diluted in a 96-well plate prior to addition to the cell assay plate.
100 μl of the cell suspension ([…]) is added to each well of a sterile 96-well round-bottomed cluster plate (Costar No. 3790). 50 μl of compound solution at the appropriate dilution and 50 μl of anti-Fas antibody, clone CH-11 (Upstate, Cat No. 1 544 675) at a final concentration of 10 ng/ml, are added to the wells. Control wells are set up minus antibody and minus compound but with a serial dilution of DMSO as vehicle control. The plates are incubated for 16-18 hrs at 37° C. in 5% CO2 and 95% humidity.
Apoptosis of the cells is measured by the quantitation of DNA fragmentation using a ‘Cell Death Detection Assay’ from Roche diagnostics, No. 1544 675. After incubation for 16-18 hrs the assay plates are centrifuged at 100×g at room temperature for 5 minutes. 150 μl of the supernatant are removed and replaced by 150 μl of fresh complete medium. The cells are then harvested and 200 μl of the lysis buffer supplied in the assay kit are added to each well. The cells are triturated to ensure complete lysis and incubated for 30 minutes at 4° C. The plates are then centrifuged at 1900×g for 10 minutes and the supernatants diluted 1:20 in the incubation buffer provided. 100 μl of this solution is then assayed according to the manufacturer's instructions supplied with the kit. OD405 nm is measured 20 minutes after addition of the final substrate in a SPECTRAmax Plus plate reader (Molecular Devices). OD405 nm is plotted versus compound concentration and the IC50 values for the compounds are calculated using the curve-fitting program SOFTmax Pro (Molecular Devices) using the four parameter fit option.

The subject of assay [1] is IL-1β secretion from human whole blood. The experiment in a line: Inhibition of IL-1β secretion from whole blood. Format: cell-based. To be noted: human whole blood diluted 1:2, LPS 5 ng/ml, 18 hours, ELISA. On the procedure:
Human blood is freshly drawn from healthy donors and diluted 1:2 in PBS. To 500 μl of diluted blood […] of prediluted test compound in RPMI medium and […] LPS (5 ng/ml final concentration on the plate) are added (LPS, Serotype 0111:B4, Sigma L3012). After stimulation for 18 hours supernatants are collected and assayed for IL-1β levels using the appropriate ELISA kit (R&D systems).
On the technique in general: An ELISA detects its analyte on a solid surface through an enzyme-linked reagent.

Another assay has as its system rat cortical neurons. The experiment in a line: Hypoxia-induced apoptosis of rat cortical neurons. It is filed as cell-based, Wistar rat. To be noted: Cortical neurone, 95% N2/5% CO2, Cell Death Detection ELISA (DNA fragmentation). On the procedure: Cortical neurons are dissociated from Wistar rat embryos (E17) by a modification of the procedure of Rogers et al. 1997, Brain Res. Bulletin, 44:131. Briefly, cerebral cortices are isolated aseptically from 15-20 Wistar rat embryos. A cell suspension is prepared by mincing the cerebral cortices and digesting them with papain. Cells are washed with ovomucoid enzyme inhibitor and DNaseI and plated onto Poly-D lysine coated plates in high glucose DMEM containing 10% heat-inactivated fetal calf serum, L-glutamine, penicillin and streptomycin. The yield of neurons is […] per embryo and they are 80-90% viable as assessed by Trypan blue exclusion.
The neurons are cultured in complete medium at 37° C. in a normal atmosphere for 48 hours prior to the hypoxia experiments. For hypoxia, the normal cell medium is replaced by oxygen-depleted serum-free medium. Cells are incubated in an atmosphere of 95% N2/5% CO2 for various lengths of time. Compounds are dissolved in DMSO at 100 mM then diluted in medium and added to the culture from time=0. The level of apoptosis is measured using a Cell Death Detection ELISA kit (Roche) which detects DNA fragmentation. Plates are read at 405 nm. Controls included cells cultured in aerobic conditions in serum-containing medium (+serum) and cells cultured in aerobic conditions in serum-deprived medium (−serum).

Regarding `CC[C@@H](C(=O)N[C@@H](CC(=O)O)C(=O)COc1c(F)c(F)cc(F)c1F)n1cccc(NC(C)=O)c1=O` [Compound 1, (S,S)-3-[2-(3-Acetylamino-2-oxo-2H-pyridin-1-yl)-butyrylamino]-4-oxo-5-(2,3,5,6-tetrafluoro-phenoxy)-pentanoic acid], the IC50 in the assay with Jurkat E6.1 cells was less than 0.5 µM; in assay [1], less than 0.5 µM; in the assay on rat cortical neurons, 1 to 10 µM.

Regarding `CCC(=O)Nc1cccn([C@@H](CC)C(=O)N[C@@H](CC(=O)O)C(=O)COc2c(F)c(F)cc(F)c2F)c1=O` [Compound 2, (S,S)-4-Oxo-3-[2-(2-oxo-3-propionylamino-2H-pyridin-1-yl)-butyrylamino]-5-(2,3,5,6-tetrafluoro-phenoxy)-pentanoic acid], the IC50 was less than 0.5 µM with Jurkat E6.1 cells, less than 0.5 µM in assay [1] and less than 1 µM with rat cortical neurons.

`CC[C@@H](C(=O)N[C@@H](CC(=O)O)C(=O)COc1c(F)c(F)cc(F)c1F)n1cccc(NC(=O)C2CC2)c1=O` [Compound 4, (S,S)-3-{2-[3-(Cyclopropanecarbonyl-amino)-2-oxo-2H-pyridin-1-yl]-butyrylamino}-4-oxo-5-(2,3,5,6-tetrafluoro-phenoxy)-pentanoic acid]: the results for the IC50 (with Jurkat E6.1 cells; in assay [1]; in the assay with rat cortical neurons) were less than 0.5 µM, 0.5 to 5 µM and 1 to 10 µM, respectively.

For the compound `CC[C@@H](C(=O)N[C@@H](CC(=O)O)C(=O)COc1c(F)c(F)cc(F)c1F)n1cccc(NC(=O)C(C)C)c1=O` [Compound 5, (S,S)-3-[2-(3-Isobutyrylamino-2-oxo-2H-pyridin-1-yl)-butyrylamino]-4-oxo-5-(2,3,5,6-tetrafluoro-phenoxy)-pentanoic acid], the IC50 in the assay on Jurkat E6.1 cells was less than 0.5 µM; in assay [1] it was less than 0.5 µM; in the assay with rat cortical neurons, less than 1 µM.

Take `CC[C@@H](C(=O)N[C@@H](CC(=O)O)C(=O)COc1c(F)c(F)cc(F)c1F)n1cccc(NC(=O)c2ccco2)c1=O` [Compound 7, (S,S)-3-(2-{3-[(Furan-2-carbonyl)-amino]-2-oxo-2H-pyridin-1-yl}-butyrylamino)-4-oxo-5-(2,3,5,6-tetrafluoro-phenoxy)-pentanoic acid]: the half-inhibitory concentration (IC50) in the assay with Jurkat E6.1 cells was less than 0.5 µM; in assay [1], less than 0.5 µM; with rat cortical neurons it was 1 to 10 µM.

For `CC[C@@H](C(=O)N[C@@H](CC(=O)O)C(=O)COc1c(F)c(F)cc(F)c1F)n1cccc(NC(=O)c2ccccc2)c1=O` [Compound 11, (S,S)-3-[2-(3-Benzoylamino-2-oxo-2H-pyridin-1-yl)-butyrylamino]-4-oxo-5-(2,3,5,6-tetrafluoro-phenoxy)-pentanoic acid], the IC50 in the assay with Jurkat E6.1 cells was less than 0.5 µM; in assay [1], less than 0.5 µM; in the assay with rat cortical neurons, less than 1 µM.

In the case of `CC[C@@H](C(=O)N[C@@H](CC(=O)O)C(=O)COc1c(F)c(F)cc(F)c1F)n1cc(C(F)(F)F)cc(NC(C)=O)c1=O` [Compound 13, (S,S)-3-[2-(3-Acetylamino-2-oxo-5-trifluoromethyl-2H-pyridin-1-yl)-butyrylamino]-4-oxo-5-(2,3,5,6-tetrafluoro-phenoxy)-pentanoic acid], the IC50 is less than 0.5 µM in the assay with Jurkat E6.1 cells, 0.5 to 5 µM in assay [1] and less than 1 µM in the assay on rat cortical neurons.

`CC[C@@H](C(=O)N[C@@H](CC(=O)O)C(=O)COc1c(F)c(F)cc(F)c1F)n1cccc(NC(=O)OC)c1=O` [Compound 17, (S,S)-3-[2-(3-Methoxycarbonylamino-2-oxo-2H-pyridin-1-yl)-butyrylamino]-4-oxo-5-(2,3,5,6-tetrafluoro-phenoxy)-pentanoic acid]: the IC50 with Jurkat E6.1 cells is less than 0.5 µM; in assay [1], less than 0.5 µM; in the assay with rat cortical neurons, less than 1 µM.

Compound `C[C@@H](C(=O)NC(CC(=O)O)C(=O)CF)n1cccc(NC(=O)c2c(Cl)cccc2Cl)c1=O` (stereo partly drawn) [Compound 27, (S)-3-{2-[3-(2,6-Dichloro-benzoylamino)-2-oxo-2H-pyridin-1-yl]-propionylamino}-5-fluoro-4-oxo-pentanoic acid] returned an IC50 in the assay with Jurkat E6.1 cells of less than 0.5 µM.

With `C[C@@H](C(=O)NC(CC(=O)O)C(=O)CF)n1cccc(NC(=O)Cc2ccccc2)c1=O` (stereo partly drawn) [Compound 28, (S)-5-Fluoro-4-oxo-3-[2-(2-oxo-3-phenylacetylamino-2H-pyridin-1-yl)-propionylamino]-pentanoic acid], the IC50 with Jurkat E6.1 cells fell in the range of 0.5 to 2 µM; in assay [1] it was 0.5 to 5 µM.

Regarding `CC[C@@H](C(=O)NC(CC(=O)O)C(=O)CF)n1cccc(NC(=O)c2ccccc2)c1=O` (stereo partly drawn) [Compound 30, (S)-3-[2-(3-Benzoylamino-2-oxo-2H-pyridin-1-yl)-butyrylamino]-5-fluoro-4-oxo-pentanoic acid], the IC50 is less than 0.5 µM with Jurkat E6.1 cells and 1 to 10 µM in the assay on rat cortical neurons.

Take `CC[C@@H](C(=O)NC(CC(=O)O)C(=O)CF)n1cccc(NC(=O)c2c(Cl)cccc2Cl)c1=O` (stereo partly drawn) [Compound 31, (S)-3-{2-[3-(2,6-Dichloro-benzoylamino)-2-oxo-2H-pyridin-1-yl]-butyrylamino}-5-fluoro-4-oxo-pentanoic acid]: the IC50 in the assay on Jurkat E6.1 cells is less than 0.5 µM; in the assay with rat cortical neurons it was 1 to 10 µM.

In turn, `CC[C@@H](C(=O)NC(CC(=O)O)C(=O)CF)n1cccc(NC(=O)c2ccccn2)c1=O` (stereo partly drawn) [Compound 32, (S)-5-Fluoro-4-oxo-3-(2-{2-oxo-3-[(pyridine-2-carbonyl)-amino]-2H-pyridin-1-yl}-butyrylamino)-pentanoic acid] returned an IC50 with Jurkat E6.1 cells of less than 0.5 µM.

Consider `CC[C@@H](C(=O)NC(CC(=O)O)C(=O)CF)n1cccc(NC(=O)Cc2ccccc2)c1=O` (stereo partly drawn) [Compound 33, (S)-5-Fluoro-4-oxo-3-[2-(2-oxo-3-phenylacetylamino-2H-pyridin-1-yl)-butyrylamino]-pentanoic acid], for which, in the assay on Jurkat E6.1 cells, the IC50 is less than 0.5 µM.

Consider `CC[C@@H](C(=O)NC(CC(=O)O)C(=O)CF)n1cccc(NC(=O)Cc2cccc(C)c2)c1=O` (stereo partly drawn) [Compound 34, (S)-5-Fluoro-4-oxo-3-{2-[2-oxo-3-(2-m-tolyl-acetylamino)-2H-pyridin-1-yl]-butyrylamino}-pentanoic acid], for which the IC50 in the assay on Jurkat E6.1 cells was less than 0.5 µM; with rat cortical neurons, 1 to 10 µM.

For `CCC[C@@H](C(=O)NC(CC(=O)O)C(=O)CF)n1cccc(NC(=O)CC)c1=O` (stereo partly drawn) [Compound 35, (S)-5-Fluoro-4-oxo-3-[2-(2-oxo-3-propionylamino-2H-pyridin-1-yl)-pentanoylamino]-pentanoic acid], the 50% inhibitory concentration (IC50) in the assay with Jurkat E6.1 cells is less than 0.5 µM; in the assay on rat cortical neurons, 1 to 10 µM.

Consider `CC[C@@H](C(=O)NC(CC(=O)O)C(=O)CF)n1cc(C)cc(NC(=O)Cc2ccccc2)c1=O` (stereo partly drawn) [Compound 37, (S)-5-Fluoro-3-[2-(5-methyl-2-oxo-3-phenylacetylamino-2H-pyridin-1-yl)-butyrylamino]-4-oxo-pentanoic acid], for which the half-inhibitory concentration (IC50) in the assay with Jurkat E6.1 cells was less than 0.5 µM; in the assay on rat cortical neurons, 1 to 10 µM.

In general, IC50 refers to the midpoint of a concentration-inhibition curve. A low value points to greater potency.
